Laboratory results from PMC3665789 (PLoS ONE, 2013).
Like-named read-outs stand apart in the source and are kept apart here.

Legend:
[1] = test system: HSV-2 wild-type RV-124 (clinical isolate); settings: HEL cells; HSV-2 RV-124; CPE
CXCR4 = CXCR4 (Homo sapiens, UniProt P61073); experiment: Anti-CXCR4 mAb binding on SupT1 cells (flow cytometry); parameters: endogenous in cells; host or cells: SupT1 T cells (ATCC)
Procedure: To determine the interaction of LabyA1 with CD4, SupT1 cells (100 µl; 3×10^6 cells/ml) were incubated for 20 min at 4°C with 9.6 µM, 1.9 µM or 0 µM LabyA1. After extensive washing with PBS/FCS2% (PBS supplemented with 2% FCS), anti-CD4-PE conjugated mAbs RPA-T4 (eBioscience, Vienna, Austria), MT441 (Ancell, Enzo Life sciences) and OKT-4 (eBioscience) were added for 30 min at 4°C. For aspecific background staining, cells were incubated with SimulTest™ Control (IgGγ1-FITC/IgGγ2a-PE) (BD Biosciences). After washing, and fixation with 1% formaldehyde solution, samples were analyzed using the FACSCalibur and CellQuest software (BD Biosciences). The same protocol was applied for anti-CXCR4 evaluation using the fluorochrome conjugated mAbs 12G5-PE and 2B11-FITC (both BD Biosciences).

[2] = test system: laboratory-adapted HIV strains
HIV-1 IIIB = experiment: Time-of-drug-addition study, HIV; type: cell-based; settings: MT-4 cells, 48 µM LabyA1
Procedure: The time-of-drug-addition (TOA) experiments were performed as described. In brief, 1×10^6 MT-4 cells/ml were infected with HIV-1 X4 IIIB at a multiplicity of infection (MOI) of 0.5. The compounds were added at different time points in a range from 0 to 26 h post-infection. After 31 h, HIV-1 replication was detected by p24 HIV-1 Ag ELISA as described above. The reference compounds were added at 100 times their EC50-values, as obtained in the MT-4 cell antiviral assay.

R5 HIV-1 gp120 ADA = experiment: Surface plasmon resonance; type: binding; settings: SPR, immobilized gp120 ADA, 25°C
Procedure: Recombinant gp120 proteins from X4 HIV-1 IIIB strain (ImmunoDiagnostics Inc., Woburn, MA) and from R5 HIV-1 strains ADA and YU2 (ImmunoDiagnostics Inc.) were covalently immobilized on a CM5 sensor chip in 10 mM sodium acetate, pH 4.0, using standard amine coupling chemistry. The chip densities were 8200 resonance units (RUs), 10760 RUs and 9626 RUs, respectively. A reference flow cell was used as a control for non-specific binding and refractive index changes. All interaction studies were performed at 25°C on a Biacore T200 instrument (GE Healthcare, Uppsala, Sweden). The compounds LabyA1 and nisin were serially diluted in HBS-P (10 mM HEPES, 150 mM NaCl and 0,05% surfactant P20; pH 7.4) supplemented with 5% dimethyl sulfoxide (DMSO, Merck), and 10 mM CaCl2 covering a concentration range between 7.8 and 31.3 µM, by using two-fold dilution steps. Samples (in duplicate) were injected for 2 minutes at a flow rate of 45 µl/min and the dissociation was followed for 4 minutes. Several buffer blanks were used for double referencing. The CM5 sensor chip surface was regenerated with a single injection of 50 mM NaOH. A DMSO concentration series was included to eliminate the contribution of DMSO to the measured response. […] The experimental data were fit using the 1∶1 binding model Biacore T200 Evaluation software 1.0 to determine the binding kinetics.

HSV = settings: read-out: anti-HSV activity EC50 range; range over HSV-1 and HSV-2 strains; CPE in HEL cells
HSV-2 = experiment: Cellular binding experiment: pre-treatment of cells, compound removed, HSV-2 infection; type: cell-based; settings: data not shown
[3] = test system: HIV-1 BCF-06 (clinical isolate; X4); settings: PBMCs; BCF-06, group O; p27 Ag ELISA
HSV-1 wild-type = settings: read-out: Median EC50; median over HSV-1 wild-type strains; HEL cells
[4] = test system: HSV-1 wild-type RV-175 (clinical isolate); settings: HEL cells; HSV-1 RV-175; CPE
PBMCs = experiment: Activation markers CD25 and CD69 on PBMCs (flow cytometry); type: cell-based; settings: 3 days, LabyA1 9.6 µM, PHA 0.016 µM
Procedure: The effects of 9.6 µM LabyA1 and 0.016 µM PHA on the expression levels of the cellular activation markers CD25 and CD69 on PBMCs was measured after 3 days of incubation at 37°C. After washing with PBS/FCS2%, cells were incubated with anti-CD4 conjugated with PerCP (BD Biosciences) and co-stained with the PE-conjugated mAbs anti-CD25 or anti-CD69 (both BD Biosciences) for 30 min at 4°C. For aspecific background staining, cells were incubated with SimulTest™ Control (IgGγ1-FITC/IgGγ2a-PE). After washing, and fixation with 1% formaldehyde solution, samples were analyzed using the FACSCalibur and CellQuest software (BD Biosciences).

CXCR4, sequence (P61073 whole entry): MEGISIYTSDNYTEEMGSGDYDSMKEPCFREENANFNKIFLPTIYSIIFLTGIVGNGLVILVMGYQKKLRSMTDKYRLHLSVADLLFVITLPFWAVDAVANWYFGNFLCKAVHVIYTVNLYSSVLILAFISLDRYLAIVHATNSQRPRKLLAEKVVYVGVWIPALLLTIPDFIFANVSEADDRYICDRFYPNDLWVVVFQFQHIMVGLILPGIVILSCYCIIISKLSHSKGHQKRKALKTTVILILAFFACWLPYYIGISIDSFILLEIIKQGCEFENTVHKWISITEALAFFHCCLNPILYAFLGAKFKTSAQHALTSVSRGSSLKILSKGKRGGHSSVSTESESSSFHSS

`C/C=C1\NC(=O)[C@H](Cc2ccccc2)NC(=O)[C@@H]2CCCN2C(=O)[C@H](C(C)C)NC(=O)[C@H](Cc2c[nH]c3ccccc23)NC(=O)[C@]23CSC[C@H](NC1=O)C(=O)N[C@H](C(=O)O)CSSC[C@H](NC(=O)[C@@H]1CSC[C@]4(C[C@H](N)C(=O)N[C@@H](CC(N)=O)C(=O)N[C@@H](C)C(=O)N4)C(=O)N[C@@H](C(C)C)C(=O)N[C@@H](Cc4c[nH]c5ccccc45)C(=O)N[C@@H](CCC(=O)O)C(=O)N1)C(=O)N[C@@H](C2)C(=O)N[C@@H]([C@@H](C)O)C(=O)NCC(=O)N3` [LabyA1, labyrinthopeptin A1] was tested, and the EC50 [1] was 1.4 ± 0.4 µM, the “inhibition of binding of anti-CXCR4 mAb 12G5” value (CXCR4; SupT1 cells, 9.6 µM and 1.9 µM) was “unable to inhibit” and the “binding of anti-CXCR4 mAbs clone 12G5 and 2B11 to CXCR4” value (CXCR4; data not shown) was “did not affect the binding”. The EC50 ([2]; read-out: EC50 range, range over cell-line adapted HIV strains (Table 1)) was 0.79 to 3.3 µM, the EC50 ([2]; read-out: Median EC50, median over laboratory-adapted HIV strains in MT-4, PBMCs, MDM) was 1.9 µM and the time-of-drug-addition profile (HIV-1 IIIB) was “prevented HIV infection at an early time point somewhat comparable with AMD3100”. For the same molecule, the Kd (R5 HIV-1 gp120 ADA) was 12.3 ± 2.2 µM, the EC50 (HSV) was 0.29 to 2.8 µM and the “inhibition of HSV-2 replication after pre-treatment of cells for 1 h and removal of compound” value (HSV-2) was “lost its ability to inhibit HSV-2 replication”. It also gave an EC50 [3] of 0.83 ± 0.33 µM, an EC50 (HSV-1 wild-type) of 1.6 µM and an EC50 [4] of 2.8 ± 0.5 µM. The “percentage of CD4+CD69+ cells” value (PBMCs; untreated 1.4±0.8%) was “no significant effects” and the “percentage of CD4+CD25+ cells” value (PBMCs; untreated 10.7±3.2%) was “no significant effects”.
